These results are taken from patent US11312690B2, “Compounds, compositions, methods for treating diseases, and methods for preparing compounds” (UNIVERSITY OF LOUISVILLE RESEARCH FOUNDATION, INC., priority 2015, dated 2022).

Molecules are shown by their SMILES.

Assay [1] concerns the target T1, interaction of K-Ras with RalGDS (Homo sapiens, UniProt Q12967).
T1 construct: expressed in transfected cells; host or cells: HEK-293
T1 sequence (Q12967 1-914): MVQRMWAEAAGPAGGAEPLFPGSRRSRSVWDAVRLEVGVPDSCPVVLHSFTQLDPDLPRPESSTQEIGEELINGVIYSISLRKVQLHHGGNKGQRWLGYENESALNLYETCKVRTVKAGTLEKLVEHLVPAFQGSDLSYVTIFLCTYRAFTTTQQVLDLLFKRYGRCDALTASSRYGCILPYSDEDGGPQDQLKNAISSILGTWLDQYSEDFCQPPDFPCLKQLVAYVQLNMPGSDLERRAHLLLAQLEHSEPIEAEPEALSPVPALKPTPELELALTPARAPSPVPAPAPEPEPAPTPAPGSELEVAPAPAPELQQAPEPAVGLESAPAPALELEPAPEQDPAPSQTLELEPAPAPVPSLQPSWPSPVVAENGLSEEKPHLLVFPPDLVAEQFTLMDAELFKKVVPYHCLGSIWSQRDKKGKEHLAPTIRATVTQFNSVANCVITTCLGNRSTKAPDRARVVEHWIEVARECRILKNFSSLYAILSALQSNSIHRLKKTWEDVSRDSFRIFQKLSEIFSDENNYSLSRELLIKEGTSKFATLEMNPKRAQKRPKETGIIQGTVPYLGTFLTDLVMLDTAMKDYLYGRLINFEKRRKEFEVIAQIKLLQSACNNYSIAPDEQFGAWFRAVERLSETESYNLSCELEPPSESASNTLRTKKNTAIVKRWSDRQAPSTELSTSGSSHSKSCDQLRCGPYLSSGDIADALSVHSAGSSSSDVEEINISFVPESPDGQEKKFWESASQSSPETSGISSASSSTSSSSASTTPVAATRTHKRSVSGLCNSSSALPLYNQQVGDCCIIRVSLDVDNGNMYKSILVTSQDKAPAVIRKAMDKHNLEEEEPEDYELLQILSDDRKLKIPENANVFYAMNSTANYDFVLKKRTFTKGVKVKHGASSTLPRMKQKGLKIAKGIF
The assay can be described thus: Ras/RalGEF binding, immunoprecipitation and immunoblot from co-transfected HEK-293 cells. The following applies: 10 μM, HA K-Ras 12v and GFP-RalGDS, IP/IB, FIG. 3A.

Assay [2] relates to Mia-PaCa-2 cells. The assay can be described thus: Mia-PaCa-2 sub-cutaneous xenograft, primary tumor growth and lung metastasis. Format: in vivo, NRG mice. The conditions noted are these: 10 mg/kg ip every other day for 2 weeks, scored one week later. How it is done:
Some compounds of Formula (I) suppress pancreatic cancer cell metastasis—FIG. 6. NRG mice were sub-cutaneously inoculated with PBS (“no tumor cells”) or 5×10^6 Ras driven Mia-PaCa-2 cells. Mice were allowed to recover for 1 week and then injected (ip) with PBS/DMSO carrier or 10 mg/kg of compound I-1 every other day for 2 weeks. One week later, mice were scored for primary tumor growth and lung metastasis.

Assay [3] has as its system MiaPaCa-2. The assay can be described thus: Soft agar colony formation. Format: cell-based, human. How it is done:
FIG. 1. Effects of some compounds of Formula (I) on RalGEF inhibitor on soft agar growth and normal growth in 2D of pancreatic carcinoma cell lines. In FIGS. 1A and 1B, Panc-1 (ATCC® CRL-1469™) and MiaPaCa-2 (ATCC® CRL-1420™) mutant Ras containing pancreatic tumor cell lines were plated in soft agar in the presence of 10 μM or 0.9 μM of compound I-1 and scored for the formation of colonies. In FIGS. 1C and 1D, compound I-1 was then tested for the ability to inhibit cell growth on the same cell lines under normal 2D growth conditions on plastic. “0” is the carrier. Cells were seeded at the same density and scored after two weeks in culture.
Human pancreatic tumor cell lines MiaPaca-2 and Panc-1 contain activated K-Ras and were used in the initial screen to identify compound I-1. Soft agar colony formation remains an established in vitro assay to predict tumorigenicity and was used to predict tumorigenicity for compound I-1.
Several other compounds were tested against the Mia Paca-2 cell line using the soft agar colony formation in vitro assay in two experiments. For each table, DMSO was used as a control and, as such, within each table, the DMSO colonies are the measure against which each measurement in the corresponding table is compared.

As for `COc1cccc(CNc2nc(CN(C)Cc3cccc(OC)c3)nc3sc(C)c(C)c23)c1` [Compound I-1], the “stable association of Ras and RalGDS” value in assay [1] was “inhibited the stable association of Ras and RalGDS”. Also, the “effects on the primary tumor” value in assay [2] is “not obvious”. In assay [2] (FIG. 6), the lung metastasis entry was “metastasis was inhibited”. For the same molecule, in assay [3] (10 μM, FIG. 1B), the “ability of the cells to grow in soft agar” value is recorded as “almost completely blocked”. Also, the Colonies in agar is 0 ± 0 in assay [3] (10 μM, Table 2 experiment, DMSO control 182 ± 7 colonies) and 12 ± 1 in assay [3] (10 μM, Table 3 experiment, DMSO control 1686 ± 114 colonies). Besides, in assay [3] (FIG. 1B), the “tumorigenic phenotype in vitro” value is listed as “blocks the tumorigenic phenotype in vitro at low μM or sub μM levels”. In addition, the IC50 in assay [3] (Homo sapiens, MIA PaCa-2, read-out: IC50 (concentration that inhibits 50% of colony formation)) was less than 1000 nM.
